According to PubChem BioAssay (NCI):
Where “and” joins values, the source holds several entries; their conditions need not be identical. Equal entries are not always repeated.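 Where inhibition never reached the appropriate level, the endpoint shown equals the highest concentration tested. Otherwise, values were interpolated linearly from a five-concentration, 48-hour dose response in 96-well plates. At the GI50, growth is halved. TGI: concentration producing complete growth inhibition.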

Assays:
Experiment in all cases: NCI-60 cell line screen, 48 h
HOP-92 NSCLC = system: HOP-92 NSCLC
U251 CNS = system: U251 CNS
HOP-62 NSCLC = system: HOP-62 NSCLC
SK-OV-3 ovarian = system: SK-OV-3 ovarian
HCC-2998 colon = system: HCC-2998 colon
SNB-19 CNS = system: SNB-19 CNS
UACC-257 melanoma = system: UACC-257 melanoma
SF-268 CNS = system: SF-268 CNS
UO-31 renal = system: UO-31 renal
DU-145 prostate = system: DU-145 prostate

SMILES | TGI (HOP-92 NSCLC) | TGI (U251 CNS) | TGI (HOP-62 NSCLC) | TGI (SK-OV-3 ovarian) | TGI (HCC-2998 colon) | TGI (SNB-19 CNS) | TGI (UACC-257 melanoma) | TGI (SF-268 CNS) | GI50 (HOP-92 NSCLC) | GI50 (UO-31 renal) | GI50 (U251 CNS) | GI50 (HOP-62 NSCLC) | GI50 (SK-OV-3 ovarian) | GI50 (HCC-2998 colon) | GI50 (SF-268 CNS) | GI50 (DU-145 prostate) | TGI (UO-31 renal) | TGI (DU-145 prostate)
Cc1ccc(S(=O)(=O)Nn2c(-c3ccccc3)c(C#N)c(-c3ccc([N+](=O)[O-])cc3)c(C#N)c2=O)cc1 | > 100 µM | > 100 µM | > 100 µM | > 100 µM | > 100 µM | > 100 µM | > 100 µM | > 100 µM |  |  |  |  |  |  |  |  |  | 
COc1cc2c3c(n(CCCNCCO)c(=O)c2cc1OC)-c1cc2c(cc1C3=O)OCO2 | 2.77 µM and 3.56 µM | 1.09 µM and 1.62 µM |  | 2.15 µM and 19 µM | 1.97 µM and 11.1 µM | > 100 µM |  | 0.448 µM | 0.831 µM and 0.102 µM | 0.0183 µM and 0.181 µM | 0.0191 µM and < 0.0383 µM | 0.0127 µM and 0.0979 µM | 0.603 µM and 0.663 µM | 0.978 µM | < 0.01 µM | 0.0299 µM |  | 
c1ccc2c3c(ccc2c1)CSCc1ccc2ccccc2c1-3 | > 100 µM | > 100 µM | > 100 µM |  | > 100 µM | > 100 µM | > 100 µM | > 100 µM |  |  |  |  |  |  |  |  | > 100 µM | > 100 µM
COC(=O)Cc1c(C2=Nc3ccccc3C2(O)CC(=O)OC)[nH]c2ccccc12 (configuration not stated) | > 100 µM | > 100 µM | > 100 µM | > 100 µM |  | > 100 µM | > 100 µM | > 100 µM |  |  |  |  |  |  |  |  | > 100 µM | > 100 µM
Cc1ccc2ccccc2c1CC1S(=O)(=O)OCCOS1(=O)=O |  | 24.7 µM | 28.5 µM |  | 15.8 µM | 25.9 µM | 41.2 µM |  |  |  |  |  |  |  |  |  | 27.1 µM | 24.1 µM
